A word on the Ki: it is a measure of affinity in units of concentration, obtained from inhibition or displacement. What is called EC50 is the concentration at which the effect is half-maximal. A low value points to higher potency in that assay.

The target of test [1] is 5-hydroxytryptamine receptor 1D (Homo sapiens, UniProt P28221). The test is described as follows: Binding affinity for human 5-hydroxytryptamine 1D receptor.
In test [2] the target is 5-hydroxytryptamine receptor 1B (Homo sapiens, UniProt P28222). Briefly: Binding affinity towards cloned human 5-hydroxytryptamine 1B receptor.
The species entered for a further test is Oryctolagus cuniculus. The test is described as follows: The compound was tested for its […] activity using rabbit saphenous vein (RSV) preparation. The format is functional.

Each structure is given as a SMILES string.

Sequence of 5-hydroxytryptamine receptor 1D (P28221 whole entry): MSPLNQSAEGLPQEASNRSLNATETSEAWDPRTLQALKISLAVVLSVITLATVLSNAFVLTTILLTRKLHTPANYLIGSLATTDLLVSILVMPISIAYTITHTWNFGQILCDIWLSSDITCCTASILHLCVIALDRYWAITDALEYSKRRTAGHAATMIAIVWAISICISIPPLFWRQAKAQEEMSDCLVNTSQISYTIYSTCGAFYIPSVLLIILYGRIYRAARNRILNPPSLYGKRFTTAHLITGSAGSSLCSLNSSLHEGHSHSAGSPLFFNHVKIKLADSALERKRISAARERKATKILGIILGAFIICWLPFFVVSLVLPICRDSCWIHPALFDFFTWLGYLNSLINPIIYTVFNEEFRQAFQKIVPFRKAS
Sequence of 5-hydroxytryptamine receptor 1B (P28222 whole entry): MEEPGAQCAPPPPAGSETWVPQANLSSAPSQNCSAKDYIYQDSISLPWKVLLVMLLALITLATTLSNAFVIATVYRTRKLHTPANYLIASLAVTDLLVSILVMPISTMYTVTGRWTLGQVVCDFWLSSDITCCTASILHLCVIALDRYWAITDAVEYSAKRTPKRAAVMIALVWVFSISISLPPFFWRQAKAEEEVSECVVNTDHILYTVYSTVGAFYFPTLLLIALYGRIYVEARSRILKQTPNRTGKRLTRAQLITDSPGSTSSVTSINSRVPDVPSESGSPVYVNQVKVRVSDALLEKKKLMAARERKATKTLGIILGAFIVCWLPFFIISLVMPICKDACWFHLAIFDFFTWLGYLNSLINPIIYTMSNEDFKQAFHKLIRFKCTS

For the molecule `CCc1ccc2[nH]cc(CCN3CCCC3)c2c1`, the results for the inhibitory constant (Ki) in test [1] and in test [2] were 45 nM and 1620 nM, respectively.
Turning to `CC(C)c1ccc2[nH]cc(CCN(C)C)c2c1`, the figures for the Ki in test [1] and in test [2] were 0.4 nM and 14.2 nM, respectively.
`CN1CCC[C@@H]1Cc1c[nH]c2ccc(C(C)(C)C)cc12`: the inhibitory constant (Ki) was found to be 0.25 nM in test [1] and 15.5 nM in test [2]. The molecule also displayed an EC50 in the test filed under Oryctolagus cuniculus of 51.8 nM.
Turning to `CNS(=O)(=O)Cc1ccc2[nH]cc(CCN(C)C)c2c1`, it took 174 nM to reach a half-maximal effect in the test listed under Oryctolagus cuniculus (EC50).
With `CCc1ccc2[nH]cc(C[C@H]3CCCN3C)c2c1`, the results for the inhibitory constant (Ki) in test [1] and in test [2] were 0.97 nM and 47 nM, respectively. The molecule further came in with an EC50 in the test filed under Oryctolagus cuniculus of 14.7 nM.
For `CC(C)c1ccc2[nH]cc(CCN3CCCC3)c2c1`, the Ki came to 5.3 nM in test [1] and 472 nM in test [2]. In addition, it took 440 nM to reach a half-maximal effect in the test filed under Oryctolagus cuniculus (EC50).
As to `CC(C)(C)c1ccc2[nH]cc(CCN3CCCC3)c2c1`, the figures for the Ki in test [1] and in test [2] were 2.5 nM and 312 nM, respectively. This molecule had a concentration for a half-maximal effect (EC50) in the test listed under Oryctolagus cuniculus of 1170 nM.
With `CCc1ccc2[nH]cc(CCN(C)C)c2c1`, the Ki in test [1] was 16 nM. For the same molecule, the EC50 in the test listed under Oryctolagus cuniculus was 350 nM.
For `Cc1ccc2[nH]cc(C[C@H]3CCCN3C)c2c1`, the Ki in test [1] came to 3.5 nM; in test [2], 118 nM. This molecule also gave an EC50 in the test listed under Oryctolagus cuniculus of 102 nM.
With `CC(C)c1ccc2[nH]cc(C[C@H]3CCCN3C)c2c1`, the Ki in test [1] amounted to 0.29 nM; in test [2] it was 10.4 nM. In the test filed under Oryctolagus cuniculus, this molecule yielded an EC50 of 28.6 nM.
`Cn1cc(CCN)c2cc(C(C)(C)C)ccc21` yielded a Ki in test [1] of 0.45 nM.

(Values after ChEMBL document CHEMBL1133255 (Bioorg Med Chem Lett, 2000).)
